Assay results: patent publication US9862684B2, “Modulation of K2P channels” (The Regents of the University of California, priority 2013, dated 2018)
Values joined by “and” are separate entries in the source; they are usually repeats but may differ in a detail not shown here. Identical values can stand only once.

Target: T1, K2P3.1 (TASK-1) (Mus musculus, UniProt O35111)
T1 construct: expressed in transfected cells; host or cells: Xenopus oocytes
Test: Two-electrode voltage clamp, Xenopus oocytes expressing K2P3.1 (TASK-1)
Format: cell-based, Murine
Method: FIG. 7 ML67-33 is a selective activator of heat- and mechanosensitive K2P channels. a-f, Exemplar I-V curves showing the effect of ML67-33 on a, K2P10.1 (TREK-2), b, K2P4.1 (TRAAK), c, K2P3.1 (TASK-1), d, K2P9.1 (TASK-3), e, K2P5.1 (TASK-2), and f, K2P18.1 (TRESK) measured in Xenopus oocytes in 2 mM [K^+]o pH 7.4. Currents were elicited by a voltage ramp from −150 to 50 mV, from a holding potential of −80 mV. g, Quantification of the effect of ML67-33 on the indicated channels. Data (mean±s.e., n≧6, N≧2) was normalized to basal channel activity and fitted to the Hill equation. […] Error bars indicate s.e., n≧6, N≧2.
Murine K2P channels were cloned into pGEMHE/pMO {Bagriantsev, 2011}, IRES-GFP (Invitrogen), or pYES2-MET25 (high copy 2μ, URA3) {Minor, 1999} for expression in oocytes, HEK-293T cells, and yeast, respectively, using standard molecular biology procedures, and verified by DNA sequencing.
Two-electrode voltage clamp recordings were performed from defolliculated stage V-VI Xenopus oocytes 24-48 hours after injection with 0.015-6.0 ng cRNA, using microelectrodes (0.3-3.0 MΩ) filled with 3M KCl. Data was acquired using the GeneClamp 500B (MDS Analytical Technologies) amplifier controlled by the pClamp software (Molecular Devices), and digitized at 1 kHz using Digidata 1332A (MDS Analytical Technologies). Recording solutions (mM): 2K (96 NaCl, 2 KCl, 1.8 CaCl2, 2 MgCl2), 90K (90 KCl, 8 NaCl, 1.8 CaCl2, 2 MgCl2), were buffered 5 mM HEPES pH 7.4. For K2P recordings, currents we elicited by a 1 second long ramp from −150 to +50 mV from a holding potential of −80 mV (2K), or −100 to +50 mV from a holding potential of 0 mV (90K). For KCNQ2 recordings, currents were elicited by a step protocol from −120 to 60 mV, in 20 mV increments, from a holding potential of −80 mV. Patch-clamp recordings from HEK-293T cells were performed using microelectrodes (2-3 MΩ) filled with 1M KCl. Data was acquired using the Axopatch 200B amplifier controlled by pClamp software, and digitized at 1 kHz using Digidata 1332A. Recording solutions (mM): intracellular (145 KCl, 5 EGTA, 3 MgCl2,) extracellular (150 NaCl, 5 KCl, 3 MgCl2, 1 CaCl2) were buffered with 5 mM HEPES pH 7.2 and 7.4, respectively. Currents were elicited by a 1 second long ramp from −150 to +50 mV from a holding potential of −80 mV. Data were fitted with a modified Hill's equation: I=Imin+(Imax−Imin)/(1+10^((Log EC50−Log [C])*H)), where Imax and Imin are maximal and minimal current values, respectively, EC50 is a half-maximal effective concentration of the compound, and H is the Hill coefficient.
There are six K2P subgroups {Noel, 2011} (FIG. 11). […]

T1 sequence (O35111 whole entry): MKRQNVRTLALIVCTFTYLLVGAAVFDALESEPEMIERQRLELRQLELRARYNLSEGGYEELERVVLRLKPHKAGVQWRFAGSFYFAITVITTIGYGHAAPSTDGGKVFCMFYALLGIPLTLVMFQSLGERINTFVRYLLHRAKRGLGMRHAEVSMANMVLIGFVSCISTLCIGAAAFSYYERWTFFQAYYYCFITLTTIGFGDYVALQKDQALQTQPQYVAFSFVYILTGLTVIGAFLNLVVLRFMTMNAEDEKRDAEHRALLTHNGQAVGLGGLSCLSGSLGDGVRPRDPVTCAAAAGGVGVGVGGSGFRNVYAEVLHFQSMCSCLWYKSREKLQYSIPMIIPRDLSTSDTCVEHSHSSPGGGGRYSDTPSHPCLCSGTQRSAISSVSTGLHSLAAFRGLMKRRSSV

For `CC1(C)c2cc(Cl)ccc2N(CCc2nnn[nH]2)c2ccc(Cl)cc21` [ML67-33, 2,7-dichloro-9,9-dimethyl-10-[2-(1H-tetrazol-5-yl)ethyl]acridine], the “functional effect / activation (in words)” value (ML67-33 applied at 100 μM, ML67 concentration not stated) was “little or no functional effects” and the “Emax (fold)” value (at 100 μM (FIG. 7 legend), ** in Table 1) was 1.1±0.0 fold and 1.1 ± 0.1** fold.
